Laboratory results as given in the supplement of paper PMC10307832.

Assays:
Assay in all cases: relative viability (nuclei count vs DMSO), 5 days (fraction); higher = more cells survive
[1] = test system: NCI-H1299
In short: (§1)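 One day after seeding in 1536-well plates, lung cancer cell lines were dosed by pin tool. Dosing was either single-drug or a fixed anchor-drug dose plus five library-drug doses (not always all listed) in √10 steps. After 5 days, nuclei were stained in one fix-and-stain step and counted on 4× images, and relative viability is the nuclei count of treated wells over that of vehicle wells, given as the median of duplicate plates.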

[2] = test system: NCI-H596
In short: as §1

[3] = test system: NCI-H1734
In short: as §1

[4] = test system: NCI-H2405
In short: as §1

[5] = test system: EBC-1
In short: as §1

[6] = test system: A549
In short: as §1

[7] = test system: NCI-H2085
In short: as §1

[8] = test system: CAL-12T
In short: as §1

[9] = test system: Calu-6
In short: as §1

[10] = test system: IA-LM
In short: as §1

[11] = test system: HCC-366
In short: as §1

[12] = test system: NCI-H1703
In short: as §1

[13] = test system: NCI-H1993
In short: as §1

## COCC1(CO)C(=O)C2CCN1CC2 (centres undefined) [PRIMA-1MET] + C[C@]1(O)C[C@@H](c2nc(-c3ccc4ccc(-c5ccccc5)nc4c3)c3c(N)nccn32)C1 [Linsitinib] (partner 1 µM)
[1]; first compound 0.2 µM
  relative viability: 1.15
[1]; first compound 0.6325 µM
  relative viability: 0.852
[1]; first compound 2 µM
  relative viability: 1.01
[1]; first compound 6.325 µM
  relative viability: 1.05
[1]; first compound 20 µM
  relative viability: 0.917
[2]; first compound 0.2 µM
  relative viability: 1.29
[2]; first compound 0.6325 µM
  relative viability: 0.894
[2]; first compound 2 µM
  relative viability: 0.972
[2]; first compound 6.325 µM
  relative viability: 1.09
[2]; first compound 20 µM
  relative viability: 1.14
[3]; first compound 0.2 µM
  relative viability: 0.972
[3]; first compound 0.6325 µM
  relative viability: 0.808
[3]; first compound 2 µM
  relative viability: 0.824
[3]; first compound 6.325 µM
  relative viability: 0.818
[3]; first compound 20 µM
  relative viability: 0.51
[4]; first compound 0.2 µM
  relative viability: 0.635
[4]; first compound 0.6325 µM
  relative viability: 1.01
[4]; first compound 6.325 µM
  relative viability: 0.727
[4]; first compound 20 µM
  relative viability: 0.0877
[5]; first compound 0.2 µM
  relative viability: 1.02
[5]; first compound 0.6325 µM
  relative viability: 0.972
[5]; first compound 2 µM
  relative viability: 0.758
[5]; first compound 6.325 µM
  relative viability: 0.9
[5]; first compound 20 µM
  relative viability: 0.623
[6]; first compound 0.2 µM
  relative viability: 0.708
[6]; first compound 0.6325 µM
  relative viability: 0.559
[6]; first compound 2 µM
  relative viability: 0.281
[6]; first compound 6.325 µM
  relative viability: 0.598
[6]; first compound 20 µM
  relative viability: 0.403
[7]; first compound 0.2 µM
  relative viability: 1
[7]; first compound 0.6325 µM
  relative viability: 0.826
[7]; first compound 2 µM
  relative viability: 0.866
[7]; first compound 6.325 µM
  relative viability: 0.731
[7]; first compound 20 µM
  relative viability: 0.287
[8]; first compound 0.2 µM
  relative viability: 0.725
[8]; first compound 0.6325 µM
  relative viability: 0.733
[8]; first compound 2 µM
  relative viability: 0.745
[8]; first compound 6.325 µM
  relative viability: 0.85
[8]; first compound 20 µM
  relative viability: 0.543
[9]; first compound 0.2 µM
  relative viability: 1.02
[9]; first compound 0.6325 µM
  relative viability: 0.885
[9]; first compound 2 µM
  relative viability: 0.732
[9]; first compound 6.325 µM
  relative viability: 0.957
[9]; first compound 20 µM
  relative viability: 0.687
[10]; first compound 0.2 µM
  relative viability: 0.483
[10]; first compound 0.6325 µM
  relative viability: 0.661
[10]; first compound 2 µM
  relative viability: 0.358
[10]; first compound 6.325 µM
  relative viability: 0.713
[10]; first compound 20 µM
  relative viability: 0.573
[11]; first compound 0.2 µM
  relative viability: 0.773
[11]; first compound 0.6325 µM
  relative viability: 0.566
[11]; first compound 6.325 µM
  relative viability: 0.636
[11]; first compound 20 µM
  relative viability: 0.0588
[12]; first compound 0.2 µM
  relative viability: 0.25
[12]; first compound 6.325 µM
  relative viability: 1.29
[12]; first compound 20 µM
  relative viability: 0.0482
[13]; first compound 0.2 µM
  relative viability: 0.708
[13]; first compound 0.6325 µM
  relative viability: 0.794
[13]; first compound 2 µM
  relative viability: 0.656
[13]; first compound 6.325 µM
  relative viability: 0.725
[13]; first compound 20 µM
  relative viability: 0.757

## COCC1(CO)C(=O)C2CCN1CC2 (centres undefined) [PRIMA-1MET] + Cc1nc(NC(=O)N2CCC[C@H]2C(N)=O)sc1-c1ccnc(C(C)(C)C(F)(F)F)c1 [Alpelisib] (partner 2 µM)
[1]; first compound 0.2 µM
  relative viability: 1.07
[1]; first compound 0.6325 µM
  relative viability: 1.08
[1]; first compound 2 µM
  relative viability: 1.08
[1]; first compound 6.325 µM
  relative viability: 1.03
[1]; first compound 20 µM
  relative viability: 0.976
[2]; first compound 0.2 µM
  relative viability: 0.539
[2]; first compound 0.6325 µM
  relative viability: 0.446
[2]; first compound 2 µM
  relative viability: 0.586
[2]; first compound 6.325 µM
  relative viability: 0.673
[2]; first compound 20 µM
  relative viability: 0.469
[3]; first compound 0.2 µM
  relative viability: 0.876
[3]; first compound 0.6325 µM
  relative viability: 0.658
[3]; first compound 2 µM
  relative viability: 0.679
[3]; first compound 6.325 µM
  relative viability: 0.73
[3]; first compound 20 µM
  relative viability: 0.3
[4]; first compound 0.2 µM
  relative viability: 0.517
[4]; first compound 0.6325 µM
  relative viability: 0.896
[4]; first compound 6.325 µM
  relative viability: 0.625
[4]; first compound 20 µM
  relative viability: 0.0731
[5]; first compound 0.2 µM
  relative viability: 0.87
[5]; first compound 0.6325 µM
  relative viability: 0.921
[5]; first compound 2 µM
  relative viability: 0.83
[5]; first compound 6.325 µM
  relative viability: 0.757
[5]; first compound 20 µM
  relative viability: 0.666
[6]; first compound 0.2 µM
  relative viability: 0.728
[6]; first compound 0.6325 µM
  relative viability: 0.803
[6]; first compound 2 µM
  relative viability: 0.861
[6]; first compound 6.325 µM
  relative viability: 0.881
[6]; first compound 20 µM
  relative viability: 0.593
[7]; first compound 0.2 µM
  relative viability: 1.04
[7]; first compound 0.6325 µM
  relative viability: 0.941
[7]; first compound 2 µM
  relative viability: 0.962
[7]; first compound 6.325 µM
  relative viability: 0.554
[7]; first compound 20 µM
  relative viability: 0.35
[8]; first compound 0.2 µM
  relative viability: 1.19
[8]; first compound 0.6325 µM
  relative viability: 1.29
[8]; first compound 2 µM
  relative viability: 1.08
[8]; first compound 6.325 µM
  relative viability: 1.42
[8]; first compound 20 µM
  relative viability: 0.264
[9]; first compound 0.2 µM
  relative viability: 1.02
[9]; first compound 0.6325 µM
  relative viability: 0.941
[9]; first compound 2 µM
  relative viability: 0.859
[9]; first compound 6.325 µM
  relative viability: 1
[9]; first compound 20 µM
  relative viability: 0.856
[10]; first compound 0.2 µM
  relative viability: 0.695
[10]; first compound 0.6325 µM
  relative viability: 0.863
[10]; first compound 2 µM
  relative viability: 0.726
[10]; first compound 6.325 µM
  relative viability: 1
[10]; first compound 20 µM
  relative viability: 0.813
[11]; first compound 0.2 µM
  relative viability: 0.865
[11]; first compound 0.6325 µM
  relative viability: 0.37
[11]; first compound 6.325 µM
  relative viability: 0.376
[11]; first compound 20 µM
  relative viability: 0.0102
[12]; first compound 0.2 µM
  relative viability: 0.393
[12]; first compound 0.6325 µM
  relative viability: 0.37
[12]; first compound 2 µM
  relative viability: 0.318
[12]; first compound 6.325 µM
  relative viability: 0.436
[12]; first compound 20 µM
  relative viability: 0.0451
[13]; first compound 0.2 µM
  relative viability: 0.724
[13]; first compound 0.6325 µM
  relative viability: 0.706
[13]; first compound 2 µM
  relative viability: 0.628
[13]; first compound 6.325 µM
  relative viability: 0.768
[13]; first compound 20 µM
  relative viability: 0.664
